From paper PMC8795738, “The Tarantula Venom Peptide Eo1a Binds to the Domain II S3-S4 Extracellular Loop of Voltage-Gated Sodium Channel NaV1.8 to Enhance Activation” (Frontiers in Pharmacology, 2022)
Where a SMILES comes first, the peptide text is derived from it. Bridges are numbered along the chain shown (N, C = ends).

Legend:
NaV1.3 = test: I-V protocol, whole-cell patch-clamp, NaV1.3; assay type: cell-based, human; conditions: Eo1a 10 μM
Protocol: (§1) Human Embryonic Kidney (HEK) 293 cells stably expressing human NaV1.1 to NaV1.7/β1 (SB Drug Discovery, Glasgow, United Kingdom), Chinese Hamster Ovary (CHO) cells stably expressing human NaV1.8/β3 in a tetracycline-inducible system (ChanTest, Cleveland, OH, United States), and HEK293 cells stably expressing rat transient receptor potential vanilloid 1 (TRPV1) were cultured as previously described ([Yin et al., 2020]). Human KV2.1 and NaV1.7 mutants were transiently transfected into HEK293 cells stably expressing β1/β2 using Lipofectamine 2000 (Thermo Fisher Scientific, Scoresby, VIC, Australia) and used for patch-clamp experiments 48 h after transfection. Cells were grown in an incubator at 37°C with 5% CO2 and passaged every 3–4 d (at 70–80% confluency) using TrypLE Express (Thermo Fisher Scientific).
(§2) Automated whole-cell patch-clamp recordings were performed with a QPatch-16 automated electrophysiology platform (Sophion Bioscience, Ballerup, Denmark) using single-hole (QPlate 16 with a standard resistance of 2 ± 0.4 MΩ) or multi-hole (QPlate 16X with a standard resistance 0.2 ± 0.04 MΩ, NaV1.8 only) as previously described ([McMahon et al., 2020]).
(§3) The extracellular solution (ECS) consisted of (in mM) 145 NaCl (replaced with 70 choline chloride for NaV1.4, NaV1.5 and NaV1.7), 4 KCl, 2 CaCl2, 1 MgCl2, 10 HEPES, and 10 glucose, pH to 7.4 with NaOH (adjusted to 305 mOsm/L with sucrose). For NaV recordings the intracellular solution (ICS) consisted of (in mM) 140 CsF, 1 EGTA, 5 CsOH, 10 HEPES, and 10 NaCl, pH to 7.3 with CsOH (adjusted to 320 mOsm/L with sucrose). For KV2.1 recordings the ICS consisted of (in mM) 50 KCl, 60 KF, 10 EGTA, 10 HEPES, 10 NaCl pH to 7.3 with KOH (adjusted to 320 mOsm/L with sucrose). […]
(§4) The time constant of fast inactivation (τ) was computed by fitting the current decay traces with a single exponential function using QPatch Assay Software 5.6 (Sophion). The time to peak was calculated from pulse onset to peak inward current using QPatch Assay Software 5.6 (Sophion).

[1] = system: NaV1.7 with DIV S1-S2 loop of NaV1.8; test: Voltage-dependence of activation, NaV1.7/NaV1.8 chimera DIV S1-S2; assay type: cell-based, human; conditions: Eo1a 10 μM; NaV1.7 with NaV1.8 DIV S1-S2; HEK293 β1/β2, transient; mean ± SEM, n = 3–6 cells
Protocol: as §1
Wild-type (WT) hNaV1.7 cDNA (NM_002,977, a gift from Dr James Cox, University College London) was subjected to in vitro site-directed mutagenesis using the QuikChange™ XL mutagenesis kit (Agilent Technologies) following the manufacturer’s instructions. NaV1.7 mutants were generated by substituting the domain II (DII) S1-S2 loop, the DII S3-S4 loop, the domain IV (DIV) S1-S2 loop and the DIV S3-S4 loop in NaV1.7 with the corresponding regions of NaV1.8. The mutations were verified by sequencing at the Brisbane node of the Australian Genome Research Facility. […]

NaV1.7 = test: I-V protocol, whole-cell patch-clamp, NaV1.7; assay type: cell-based, human; conditions: Eo1a 10 μM
Protocol: as §1, §2
(§5) The extracellular solution (ECS) consisted of (in mM) 145 NaCl (replaced with 70 choline chloride for NaV1.4, NaV1.5 and NaV1.7), 4 KCl, 2 CaCl2, 1 MgCl2, 10 HEPES, and 10 glucose, pH to 7.4 with NaOH (adjusted to 305 mOsm/L with sucrose). For NaV recordings the intracellular solution (ICS) consisted of (in mM) 140 CsF, 1 EGTA, 5 CsOH, 10 HEPES, and 10 NaCl, pH to 7.3 with CsOH (adjusted to 320 mOsm/L with sucrose). For KV2.1 recordings the ICS consisted of (in mM) 50 KCl, 60 KF, 10 EGTA, 10 HEPES, 10 NaCl pH to 7.3 with KOH (adjusted to 320 mOsm/L with sucrose). TTX (1 μM) was added to the ECS for NaV1.8 recordings to inhibit background endogenous TTX sensitive current in CHO cells.
(§6) I-V curves were obtained with a holding potential of −90 mV followed by a series of 500 ms step pulses that ranged from −110 to +80 mV in 5-mV increments (repetition interval 5 s) before and after 5 min incubation with Eo1a (10 μM). Conductance-voltage (G-V) curves were obtained by calculating the conductance (G) at each voltage (V) using equation G = I/(V − V rev ), where V rev is the reversal potential. G-V curves were fitted with a Boltzmann equation. […]
as §4

NaV1.1 = test: I-V protocol, whole-cell patch-clamp, NaV1.1; assay type: cell-based, human; conditions: Eo1a 10 μM
Protocol: as §1, §2, §5, §6, §4

NaV1.2 = test: I-V protocol, whole-cell patch-clamp, NaV1.2; assay type: cell-based, human; conditions: Eo1a 10 μM
Protocol: as §1, §2, §3, §4

WT mice = test: Spontaneous pain after intraplantar injection, WT littermate mice; assay type: in vivo, mouse; conditions: Eo1a intraplantar, mean ± SEM, n = 3–4 mice
Excerpt: (§7) Adult male C57BL/6J mice aged 4–8 weeks were sourced from the Animal Resource Centre (Canning Vale, Western Australia). Adult male NaV1.8 knockouts ([Nassar et al., 2004]) (aged 8–11 weeks) and wild-type littermates were housed and tested at University College London. Animals were housed in groups of three or four per cage under 12-h light-dark cycles and were provided with standard rodent chow and water ad libitum. Ethical approval for experiments involving animals was obtained from The University of Queensland animal ethics committee (TRI/IMB/093/17, IMB/PACE/421/18) and the United Kingdom Home Office (project licence PPL 70/7382). All experiments were conducted in accordance with the International Association for the Study of Pain Guidelines for the Use of Animals in Research and the Australian Code of Practice for the Care and Use of Animals for Scientific Purposes, 8th edition (2013).
(§8) Eo1a (1 μM or 10 μM) was diluted in saline/0.1% BSA and administered by intraplantar injection to the left hind paw of mice in a volume of 40 μl under isoflurane (3%) anaesthesia, and spontaneous pain behaviours (licks, bites, shakes, and lifts of the hind paw) were counted by a blinded investigator for up to 40 min after the injection.

NaV1.8 KO mice = test: Spontaneous pain after intraplantar injection, NaV1.8 knockout mice; assay type: in vivo, mouse; conditions: Eo1a intraplantar, significantly reduced vs WT, *p < 0.05 unpaired t-test, mean ± SEM, n = 3–4 mice
Excerpt: as §7, §8

SMILES: CC[C@H](C)[C@@H]1NC(=O)[C@H](CCCNC(=N)N)NC(=O)[C@@H]2CSSC[C@@H]3NC(=O)CNC(=O)CNC(=O)[C@H](CC(C)C)NC(=O)[C@H](Cc4ccccc4)NC(=O)[C@H](Cc4c[nH]c5ccccc45)NC(=O)[C@H](CCCNC(=N)N)NC(=O)[C@@H](NC(=O)[C@@H](N)CC(=O)O)CSSC[C@H](NC(=O)[C@H](CSSC[C@@H](C(=O)N[C@@H](C)C(=O)N[C@@H](Cc4c[nH]c5ccccc45)C(=O)N[C@@H](CC(=O)O)C(=O)NCC(=O)N[C@H](C(=O)N[C@@H](Cc4ccccc4)C(N)=O)[C@@H](C)O)NC(=O)[C@H](Cc4ccc(O)cc4)NC(=O)[C@H](CCCCN)NC(=O)[C@H]([C@@H](C)CC)NC(=O)[C@H](Cc4ccc(O)cc4)NC(=O)CNC(=O)[C@H](CC(=O)O)NC1=O)NC(=O)[C@H](CC(=O)O)NC(=O)[C@H](CO)NC(=O)[C@H](CC(=O)O)NC(=O)[C@H](CCCCN)NC(=O)[C@H](CO)NC3=O)C(=O)N[C@@H](CCCCN)C(=O)N[C@@H](Cc1c[nH]cn1)C(=O)N[C@@H](CC(C)C)C(=O)N[C@@H](C)C(=O)N2 [Eo1a] (H-DCRWFLGGCSKDSDCCKHLACRIDGYIKYCAWDGTF-NH2; disulfide 2-16, 9-21, 15-30 (inferred); N-terminus assumed)
- V1/2 activation (NaV1.3; 5 min, control −20.4 ± 2.2 mV, *p < 0.05, mean ± SEM, n = 4–6): −27.9 mV
- V1/2 inactivation (steady-state fast inactivation) (NaV1.3; 5 min, control −63.2 ± 1.0 mV, mean ± SEM, n = 4–6): −63.0 ± 1.5
- effect on inactivation kinetics (NaV1.3; test pulse −20 mV): minimal effect
- ΔV1/2 activation [1]: −4.8 ± 0.6 mV
- peak current I/I0 (NaV1.7; 5 min, peak from I-V protocol at any voltage, normalised to buffer control, HEK293 hNaV1.7/β1, mean ± SEM, n = 4–6 cells): 0.63 ± 0.10
- V1/2 activation (NaV1.7; NaV1.7, 5 min, control −26.1 ± 1.5 mV, mean ± SEM, n = 4–6): −32.9 ± 2.9 mV
- V1/2 inactivation (steady-state fast inactivation) (NaV1.7; NaV1.7, 5 min, control −65.5 ± 1.4 mV, mean ± SEM, n = 4–6): −69.1 ± 4.3
- effect on fast inactivation (NaV1.7; NaV1.7, test pulse −20 mV): delayed fast-inactivation
- peak current I/I0 (NaV1.1; 5 min, peak from I-V protocol at any voltage, normalised to buffer control, HEK293 hNaV1.1/β1, mean ± SEM, n = 4–6 cells): 0.89 ± 0.03
- V1/2 activation (NaV1.1; NaV1.1, 5 min, control −21.5 ± 1.5 mV, mean ± SEM, n = 4–6): −24.4 ± 2.1 mV
- V1/2 inactivation (steady-state fast inactivation) (NaV1.1; NaV1.1, 5 min, control −55.0 ± 1.1 mV, mean ± SEM, n = 4–6): −57.8 ± 2.0
- effect on inactivation kinetics (NaV1.1; NaV1.1, test pulse −20 mV): minimal effect
- V1/2 activation (NaV1.2; 5 min, control −15.9 ± 1.2 mV, *p < 0.05, mean ± SEM, n = 4–6): −21.3 mV
- V1/2 inactivation (steady-state fast inactivation) (NaV1.2; 5 min, control −54.6 ± 1.6 mV, mean ± SEM, n = 4–6): −52.7 ± 0.5
- effect on inactivation kinetics (NaV1.2; test pulse −20 mV): minimal effect
- spontaneous pain (flinches) (WT mice): 392 ± 45 Flinches/15 min
- spontaneous pain (flinches) (NaV1.8 KO mice): 216 ± 26 Flinches/15 min
